In patent US11478460B2, “Diaryl substituted 6,5-fused ring compounds as C5aR inhibitors” (CHEMOCENTRYX, INC., priority 2017, dated 2022):

Each molecule was assayed against C5aR (Homo sapiens (Human), UniProt P21730) (assay: Chemotaxis assay using U937 cells (C5aR mediated migration)). Details: read-out: Mig IC50.
C5aR, sequence (P21730 whole entry): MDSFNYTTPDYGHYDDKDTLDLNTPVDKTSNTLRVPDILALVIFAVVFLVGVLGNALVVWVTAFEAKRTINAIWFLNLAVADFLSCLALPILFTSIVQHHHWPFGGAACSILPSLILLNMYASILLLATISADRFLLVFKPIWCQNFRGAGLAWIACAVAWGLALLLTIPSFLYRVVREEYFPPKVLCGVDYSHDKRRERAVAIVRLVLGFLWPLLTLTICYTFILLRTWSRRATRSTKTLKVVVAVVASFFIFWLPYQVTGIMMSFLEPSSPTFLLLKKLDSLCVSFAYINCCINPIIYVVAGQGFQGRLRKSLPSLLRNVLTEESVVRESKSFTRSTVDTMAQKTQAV
Type: cell-based
Outline: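 Migration toward 0.03 nM C5a, mixed with varying compound in the lower chamber (HBSS with 1% FBS), was measured over 1.5 h at 37° C through 5 μm filters. Upper chamber held 100,000 U937 cells treated overnight with 0.5 mM cAMP; migrated cells quantified by counts or CyQuant for IC50, SDF-1α as specificity control.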
Cc1cccc(OCC(C)C)c1-n1nc2c(c1-c1ccc(NC(N)=O)cc1)CN(c1ncc(C(F)(F)F)cc1F)CC2 [Example 1.374] was tested, and the IC50 was 5 to 50 nM.
With CCc1cccc(CC)c1-n1nc2c(c1-c1cc(F)c(NC(N)=O)cc1F)CN(Cc1cc(Cl)ccc1C(F)(F)F)C(C)(C)C2 [Example 1.031] the IC50 was no more than 5 nM.
With CC(C)COc1ccccc1-n1nc2c(c1-c1cc(F)c(NC(N)=O)cc1F)CN(c1ncc(C(F)(F)F)cc1F)CC2 [Example 1.205] the IC50 was no more than 5 nM.
CC[C@@H](c1ccccc1)N1CCc2nn(-c3c(C)cccc3C)c(-c3cc(F)c(NC(N)=O)cc3F)c2C1 [Example 1.092] gave an IC50 of no more than 5 nM.
Cc1cccc(OCC(C)C)c1-n1nc2c(c1-c1ccc(NC(N)=O)cc1)CN(c1cnc(C(F)(F)F)cn1)CC2 [Example 1.341] was tested, and the IC50 was 5 to 50 nM.
With CCc1cccc(CC)c1-n1nc2c(c1-c1ccc(NC(N)=O)c(F)c1)CN(c1ncc(Cl)cc1Cl)CC2 [Example 1.227] the IC50 was no more than 5 nM.
For CCc1cccc(CC)c1-n1nc2c(c1-c1cc(F)c(N)cc1F)CN(Cc1ccc(C(F)(F)F)cc1C(F)(F)F)CC2 [Example 1.004], the IC50 was 5 to 50 nM.
Cc1cccc(OCC(C)C)c1-n1nc2c(c1-c1ccc(NC(N)=O)cc1)CN(c1cc(C(C)(C)O)ccc1F)CC2 [Example 1.363] was tested, and the IC50 was 50 to 500 nM.
Work on CC(C)COc1ccccc1-n1nc2c(c1-c1cc(F)c(NC(N)=O)cc1F)CN(c1ncc(Cl)cc1Cl)CC2 [Example 1.189] yielded an IC50 of no more than 5 nM.
Cc1cccc(OCC(C)C)c1-n1nc2c(c1-c1ccc(NC(N)=O)cc1)CN(CC(C)(C(F)(F)F)C(F)(F)F)CC2 [Example 1.344] gave an IC50 of no more than 5 nM.
CCc1cccc(CC)c1-n1nc2c(c1-c1cc(F)c(NC(N)=O)cc1F)CN(c1ncc(Cl)cc1Cl)[C@@H](C)C2 [Example 1.013] was tested, and the IC50 was no more than 5 nM.
Molecule Cc1cccc(OCC(C)C)c1-n1nc2c(c1-c1ccc(NC(N)=O)cc1)CN(c1ccc(C(F)(F)F)cc1F)CC2 [Example 1.378] has an IC50 of 5 to 50 nM.
In the case of Cc1cccc(C)c1-n1nc2c(c1-c1cc(F)c(NC(N)=O)cc1F)CN(c1ncc(Cl)cn1)CC2 [Example 1.155], the IC50 is reported as 5 to 50 nM.
Cc1ccc(C(F)(F)F)c(CN2CCc3nn(-c4c(C)cccc4OCC(C)C)c(-c4ccc(NC(N)=O)cc4)c3C2)c1 [Example 1.300] was tested, and the IC50 was no more than 5 nM.
Cc1cccc(OCC(C)C)c1-n1nc2c(c1-c1ccc(NC(N)=O)c(F)c1)CN(c1ncc(F)cc1F)CC2 [Example 1.249] was tested, and the IC50 was no more than 5 nM.
For CCc1cccc(CC)c1-n1nc2c(c1-c1ccc(NC(N)=O)cc1)CN(C(C)c1ccccc1C(F)(F)F)CC2 (stereo not drawn) [Example 1.295], the IC50 was 5 to 50 nM.
For Cc1cccc(C)c1-n1nc2c(c1-c1cc(F)c(NC(N)=O)cc1F)CN(c1ccccc1Cl)CC2 [Example 1.103], the IC50 was no more than 5 nM.
With Cc1ccc(C(C)(C)C)cc1N1CCc2nn(-c3ccccc3C(C)C)c(-c3ccc(NC(N)=O)cc3)c2C1 [Example 1.403] the IC50 was 50 to 500 nM.
Work on Cc1cc(C)c(CN2CCc3nn(-c4c(C)cccc4OCC(C)C)c(-c4ccc(NC(N)=O)cc4)c3C2)c(C)c1 [Example 1.365] yielded an IC50 of no more than 5 nM.
CCc1cccc(CC)c1-n1nc2c(c1-c1cc(F)c(NC(N)=O)cc1F)CN(C(CC)c1ccccc1F)CC2 (stereo not drawn) [Example 1.150] was tested, and the IC50 was no more than 5 nM.
Cc1cnc(N2CCc3nn(-c4c(C)cccc4OCC(C)C)c(-c4cc(F)c(NC(N)=O)cc4F)c3C2)nc1 [Example 1.158] gave an IC50 of no more than 5 nM.
Molecule COc1cc(F)c(-c2c3c(nn2-c2c(C)cccc2C)CCN(c2ncc(Cl)cc2Cl)C3)cc1F [Example 1.121] has an IC50 greater than 500 nM.
In the case of Cc1ccc(C(C)C)cc1N1CCc2nn(-c3c(C)cccc3OCC(C)C)c(-c3ccc(NC(N)=O)cc3)c2C1 [Example 1.396], the IC50 is reported as 5 to 50 nM.
Molecule CCc1cccc(CC)c1-n1nc2c(c1-c1cc(F)c(NC(N)=O)cc1F)CN(CC1CCOC1)CC2 (stereo not drawn) [Example 1.020] has an IC50 of 5 to 50 nM.
In the case of Cc1cccc(OCC(C)C)c1-n1nc2c(c1-c1ccc(NC(N)=O)c(F)c1)CN(CC(C)(C)C)CC2 [Example 1.274], the IC50 is reported as no more than 5 nM.
Molecule Cc1cccc(OCC(C)C)c1-n1nc2c(c1-c1ccc(NC(N)=O)c(F)c1)CN(C(=O)C1CCCC1)CC2 [Example 1.238] has an IC50 of 5 to 50 nM.
With Cc1cccc(OCC(C)C)c1-n1nc2c(c1-c1cc(F)c(NC(N)=O)cc1F)CN(c1ncc(C(C)C)cn1)CC2 [Example 1.166] the IC50 was no more than 5 nM.
Work on Cc1cccc(OCC(C)C)c1-n1nc2c(c1-c1ccc(NC(N)=O)cc1)CN(C(=O)C1CCCC1)CC2 [Example 1.438] yielded an IC50 of 50 to 500 nM.
Cc1cccc(OCC(C)C)c1-n1nc2c(c1-c1ccc(NC(N)=O)cc1)CN(Cc1ccccc1)CC2 [Example 1.382] gave an IC50 of 5 to 50 nM.
In the case of Cc1cccc(OCC(C)C)c1-n1nc2c(c1-c1ccc(NC(N)=O)cc1)CN(Cc1cc(Cl)ccc1Cl)CC2(C)C [Example 1.261], the IC50 is reported as greater than 500 nM.
With Cc1cccc(C)c1-n1nc2c(c1-c1cc(F)c(NC(N)=O)cc1F)CN(C(C)(C)CO)CC2 [Example 1.088] the IC50 was greater than 500 nM.
Work on Cc1cc(-c2c3c(nn2-c2c(C)cccc2C)CCN(c2ncc(Cl)cc2Cl)C3)c(F)cc1NC(N)=O [Example 1.097] yielded an IC50 of no more than 5 nM.
Cc1cccc(OCC(C)C)c1-n1nc2c(c1-c1ccc(NC(N)=O)c(F)c1)CN(CC1CCOC1)CC2 (stereo not drawn) [Example 1.248] was tested, and the IC50 was 50 to 500 nM.
Work on Cc1cccc(OCC(C)C)c1-n1nc2c(c1-c1ccc(NC(N)=O)c(F)c1)CN(c1nccn3ccnc13)CC2 [Example 1.245] yielded an IC50 of 5 to 50 nM.
For C=C(C)c1cnc(N2CCc3nn(-c4c(C)cccc4OCC(C)C)c(-c4ccc(NC(N)=O)c(F)c4)c3C2)c(F)c1 [Example 1.220], the IC50 was no more than 5 nM.
Cc1cccc(OCC(C)C)c1-n1nc2c(c1-c1ccc(NC(N)=O)cc1)CN(C1CCCC1)CC2 [Example 1.410] was tested, and the IC50 was 50 to 500 nM.
With Cc1cccc(OCC(C)C)c1-n1nc2c(c1-c1ccc(NC(N)=O)c(Cl)c1)CN(c1ncc(C(F)(F)F)cc1F)CC2 [Example 1.275] the IC50 was no more than 5 nM.
In the case of Cc1cccc(OCC(C)C)c1-n1nc2c(c1-c1cc(F)c(NC(N)=O)cc1F)CN(c1nccn3ccnc13)CC2 [Example 1.142], the IC50 is reported as 5 to 50 nM.
With CCc1cccc(CC)c1-n1nc2c(c1-c1cc(F)c(NC(N)=O)cc1F)CN(Cc1ccc(C(F)(F)F)cc1C)C(C)(C)C2 [Example 1.047] the IC50 was no more than 5 nM.
With Cc1cccc(OCC(C)C)c1-n1nc2c(c1-c1ccc(NC(N)=O)cc1)CN(C(=O)COC(C)(C)C)CC2 [Example 1.424] the IC50 was greater than 500 nM.
For Cc1cccc(OCC(C)C)c1-n1nc2c(c1-c1ccc(C(N)=O)cc1)CN(c1ccccc1C(C)(C)C)CC2 [Example 1.453], the IC50 was 5 to 50 nM.
Molecule Cc1cccc(OCC(C)C)c1-n1nc2c(c1-c1ccc(N)cc1)CN(c1ccccc1C(C)(C)C)CC2 [Example 1.455] has an IC50 of 5 to 50 nM.
CCc1cccc(CC)c1-n1nc2c(c1-c1cc(F)c(NC(N)=O)cc1F)CN(Cc1ccccc1C(F)(F)F)C(C)(C)C2 [Example 1.027] showed an IC50 of no more than 5 nM.
Cc1cccc(OCC(C)C)c1-n1nc2c(c1-c1ccc(NC(N)=O)cc1)CN(c1ccc(Cl)cc1C(F)(F)F)CC2 [Example 1.317] showed an IC50 of no more than 5 nM.
CCc1cccc(CC)c1-n1nc2c(c1-c1cc(F)c(NC(N)=O)cc1F)CN(CCCC(F)(F)F)C(C)(C)C2 [Example 1.008] was tested, and the IC50 was no more than 5 nM.
For Cc1cccc(OCC(C)C)c1-n1nc2c(c1-c1ccc(NC(N)=O)cc1)CN(CC(C)(C)C)CC2(C)C [Example 1.260], the IC50 was greater than 500 nM.
Cc1cccc(C)c1-n1nc2c(c1-c1ccc(C(N)=O)cc1)CN(c1ccccc1C(C)C)CC2 [Example 1.470] gave an IC50 of 5 to 50 nM.
For CCc1cccc(CC)c1-n1nc2c(c1-c1cc(F)c(NC(N)=O)cc1C)CN(C(C)c1ccccc1C(F)(F)F)CC2 (stereo not drawn) [Example 1.197], the IC50 was no more than 5 nM.
